Here are results for 18 molecules from patent US8829029B2, “Dual modulators of 5HT2A and D3 receptors” (Hoffmann-La Roche Inc., priority 2008, dated 2014).

What is called Ki is the dissociation constant of the complex between target and ligand, obtained from inhibition or displacement.

Test [1] deals with human D3 dopamine receptor (Homo sapiens (Human), UniProt P35462). The test is described as follows: Radioligand binding ([3H]-spiperone) to cloned human D3 receptor expressed in HEK-293 EBNA cells. Particulars: membranes of transfected HEK-293 EBNA cells, 0.5 nM [3H]-spiperone, 1 h at RT. As to the method:
HEK-293 EBNA cells were transiently transfected with expression plasmids encoding for the human D2 or D3 dopamine- or for the human 5-HT2A serotonin receptor, respectively. The cells were harvested 48 h post-transfection, washed three times with cold PBS and stored at −80° C. prior to use. […] After centrifugation at 48,000×g for 30 min at 4° C., the pellet was resuspended in cold 10 mM Tris-HCl buffer containing 0.1 mM EDTA (pH 7.4), homogenized, and centrifuged as above. […] The protein content of this homogenate was determined with the Bio-Rad (Bradford) Protein Assay (Biorad Laboratories GmbH, München, Germany) according to the instructions of the manufacturer using gamma globulin as the standard. This homogenate was stored at −80° C. in aliquots and thawed immediately prior to use.
(§1) The binding affinity (Ki) of the compounds was determined using radioligand binding. Membranes were incubated in a total volume of 200 μl with a fixed concentration of radioligand (final concentration approximately 0.7 nM [^3H]-spiperone for D2, 0.5 nM [^3H]-spiperone for D3, and 1.1 nM [^3H]-ketanserin for 5-HT2A) and ten concentrations of test compound in ranging between 10 μM-0.1 nM for 1 h at RT. At the end of the incubation, the reaction mixtures were filtered on to unifilter 96-well white microplates with bonded GF/C filters (Packard BioScience, Zürich, Switzerland; preincubated for 1 h in 0.1% polyethylenimine (PEI) in assay buffer) with a Filtermate 196 harvester (Packard BioScience) and washed 3 times with cold assay buffer. The nonspecific binding was determined with equally composed reaction mixtures in the presence of 10 μM unlabelled spiperone. Per well 45 μl of Microscint 40 (Perkin Elmer, Schwerzenbach, Switzerland) was added, plates for sealed, shaken for 20 min and counted for 3 min on a Topcount Microplate Scintillation Counter (Canberra Packard SA, Zürich, Switzerland) with quenching correction.
(§2) The CPM value for each duplicate of a concentration of competing compound was averaged (y1), then the % specific binding was calculated according to the equation (((y1−non-specific)/(total binding−non-specific))×100). Graphs were plotted with the % specific binding using XLfit, a curve fitting program that iteratively plots the data using Levenburg Marquardt algorithm. The single site competition analysis equation used was y=A+((B−A)/(1+((x/C)^D))), where y is the % specific binding, A is the minimum y, B is the maximum y, C is the IC50, x is the log10 of the concentration of the competing compound and D is the slope of the curve (the Hill Coefficient). From these curves the IC50 (inhibition concentration at which 50% specific binding of the radioligand was displaced) and Hill coefficient were determined. The affinity constant (Ki) was calculated using the Cheng-Prusoff equation Ki=(IC50/1+([L]/Kd), where [L] is the concentration of radioligand and Kd is the dissociation constant of the radioligand at the receptor as determined by the saturation isotherm.

Test [2] addresses human 5-HT2A serotonin receptor (Homo sapiens (Human), UniProt P28223). In words: Radioligand binding ([3H]-ketanserin) to cloned human 5-HT2A receptor expressed in HEK-293 EBNA cells. The following applies: membranes of transfected HEK-293 EBNA cells, 1.1 nM [3H]-ketanserin, 1 h at RT. As to the method:
The ability of the compounds to bind to the 5-HT2A, D3 and D2 receptors was determined using radioligand binding to cloned receptors selectively expressed in HEK-293 EBNA cells.
HEK-293 EBNA cells were transiently transfected with expression plasmids encoding for the human D2 or D3 dopamine- or for the human 5-HT2A serotonin receptor, respectively. The cells were harvested 48 h post-transfection, washed three times with cold PBS and stored at −80° C. prior to use. The pellet was suspended in cold 50 mM Tris-HCl buffer containing 10 mM EDTA (pH 7.4) and homogenized with a Polytron (Kinematica AG, Basel, Switzerland) for 20-30 sec at 12,000 rpm. After centrifugation at 48,000×g for 30 min at 4° C., the pellet was resuspended in cold 10 mM Tris-HCl buffer containing 0.1 mM EDTA (pH 7.4), homogenized, and centrifuged as above. This pellet was further resuspended in a smaller volume of ice cold 10 mM Tris-HCl buffer containing 0.1 mM EDTA (pH 7.4) and homogenized with a Polytron for 20-30 sec at 12,000 rpm. The protein content of this homogenate was determined with the Bio-Rad (Bradford) Protein Assay (Biorad Laboratories GmbH, München, Germany) according to the instructions of the manufacturer using gamma globulin as the standard. This homogenate was stored at −80° C. in aliquots and thawed immediately prior to use.
Aliquots of membrane preparations were thawed at RT, resuspended in assay buffer (D2, D3: 50 mM Tris-HCl, 120 mM NaCl, 5 mM MgCl2, 1 mM EDTA, 5 mM KCl, 1.5 mM CaCl2, pH=7.4; 5-HT2A: 50 mM Tris-HCl, 10 mM MgCl2, 1 mM EGTA, pH=7.4), homogenized with a Polytron for 20-30 sec at 12,000 rpm and adjusted to a final concentration of approximately 7.5 μg protein/well (D2, D3) and 15 μg protein/well (5-HT2A), respectively.
as §1, §2

Sequence of human D3 dopamine receptor (P35462 whole entry): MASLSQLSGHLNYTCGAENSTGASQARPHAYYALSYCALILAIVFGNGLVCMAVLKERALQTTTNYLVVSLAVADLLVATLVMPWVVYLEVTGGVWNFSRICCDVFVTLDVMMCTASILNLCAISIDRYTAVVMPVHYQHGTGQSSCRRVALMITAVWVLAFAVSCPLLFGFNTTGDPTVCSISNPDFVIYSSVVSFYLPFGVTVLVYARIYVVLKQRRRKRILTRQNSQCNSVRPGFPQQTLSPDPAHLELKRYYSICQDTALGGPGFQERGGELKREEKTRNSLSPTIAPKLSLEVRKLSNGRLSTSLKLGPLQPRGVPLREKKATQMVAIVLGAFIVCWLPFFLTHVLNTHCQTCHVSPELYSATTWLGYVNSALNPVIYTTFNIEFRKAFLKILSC

For `CC(=O)N[C@H]1CC[C@H](CCN2CCC(c3noc4cc(F)ccc34)CC2)CC1` [Example 1, 4N-trans(4-{2-[4-(6-Fluoro-benzo[d]isoxazol-3-yl)-piperidin-1-yl]-ethyl}-cyclohexyl)-acetamide], the Ki in test [1] stood at 4.96 nM; in test [2], 2.22 nM.
The matching figures for `O=C(N[C@H]1CC[C@H](CCN2CCC(c3noc4cc(F)ccc34)CC2)CC1)C1CCOCC1` [Example 2, Tetrahydro-pyran-4-carboxylic acid trans(4-{2-[4-(6-fluoro-benzo[d]isoxazol-3-yl)-piperidin-1-yl]-ethyl}-cyclohexyl)-amide]: 9.74 nM and 1.74 nM.
As to `COCCC(=O)N[C@H]1CC[C@H](CCN2CCC(c3noc4cc(F)ccc34)CC2)CC1` [Example 3, N-trans (4-{2-[4-(6-Fluoro-benzo[d]isoxazol-3-yl)-piperidin-1-yl]-ethyl}-cyclohexyl)-3-methoxy-propionamide], the Ki in test [1] came out at 4.75 nM; in test [2] it was 1.81 nM.
For `O=C(N[C@H]1CC[C@H](CCN2CCC(c3noc4cc(F)ccc34)CC2)CC1)c1ccc(N2CCOCC2)cc1` [Example 4, N-trans-(4-{2-[4-(6-Fluoro-benzo[d]isoxazol-3-yl)-piperidin-1-yl]-ethyl}-cyclohexyl)-4-morpholin-4-yl-benzamide], in test [2], the inhibition constant (Ki) amounted to 9.52 nM.
As for `O=C(N[C@H]1CC[C@H](CCN2CCC(c3noc4cc(F)ccc34)CC2)CC1)c1ccc(N2CCOCC2)nc1` [Example 4A, N-Trans (4-{2-[4-(6-Fluoro-benzo[d]isoxazol-3-yl)-piperidin-1-yl]-ethyl}-cyclohexyl)-6-morpholin-4-yl-nicotinamide], the inhibition constant Ki was found to be 7.95 nM in test [1] and 2.7 nM in test [2].
Consider `O=C(N[C@H]1CC[C@H](CCN2CCC(c3noc4cc(F)ccc34)CC2)CC1)c1cnc(N2CCOCC2)cn1` [Example 4B, 5-Morpholin-4-yl-pyrazine-2-carboxylic acid trans (4-{2-[4-(6-fluoro-benzo[d]isoxazol-3-yl)-piperidin-1-yl]-ethyl}-cyclohexyl)-amide], for which the Ki in test [1] came out at 19.4 nM; in test [2], 3.81 nM.
The corresponding values for `O=C(N[C@H]1CC[C@H](CCN2CCC(c3noc4cc(F)ccc34)CC2)CC1)c1ccc(N2CCOCC2)nn1` [Example 4C, 6-Morpholin-4-yl-pyridazine-3-carboxylic acid-trans (4-{2-[4-(6-fluoro-benzo[d]isoxazol-3-yl)-piperidin-1-yl]-ethyl}-cyclohexyl)-amide] are 25.3 nM and 3.18 nM.
Regarding `O=C(N[C@H]1CC[C@H](CCN2CCC(c3noc4cc(F)ccc34)CC2)CC1)c1cnc(N2CCOCC2)nc1` [Example 4D, 2-Morpholin-4-yl-pyrimidine-5-carboxylic acid trans (4-{2-[4-(6-fluoro-benzo[d]isoxazol-3-yl)-piperidin-1-yl]-ethyl}-cyclohexyl)-amide], the figures for the inhibition constant Ki in test [1] and in test [2] were 15.3 nM and 2.45 nM, respectively.
As to `O=C(N[C@H]1CC[C@H](CCN2CCC(c3noc4cc(F)ccc34)CC2)CC1)c1ccc(N2CCOCC2)c(F)c1` [Example 5, 3-Fluoro-N-trans (4-{2-[4-(6-fluoro-benzo[d]isoxazol-3-yl)-piperidin-1-yl]-ethyl}-cyclohexyl)-4-morpholin-4-yl-benzamide], the Ki in test [1] came to 45.3 nM; in test [2] it was 17.5 nM.
The matching figures for `CN(C)c1ccc(C(=O)N[C@H]2CC[C@H](CCN3CCC(c4noc5cc(F)ccc45)CC3)CC2)cc1` [Example 6, 4-Dimethylamino-N-trans (4-{2-[4-(6-fluoro-benzo[d]isoxazol-3-yl)-piperidin-1-yl]-ethyl}-cyclohexyl)-benzamide]: 11.5 nM and 11.4 nM.
The matching figures for `O=C(Cc1ccc2c(c1)OCO2)N[C@H]1CC[C@H](CCN2CCC(c3noc4cc(F)ccc34)CC2)CC1` [Example 7, 2-Benzo[1,3]dioxo1-5-yl-N-trans (4-{2-[4-(6-fluoro-benzo[d]isoxazol-3-yl)-piperidin-1-yl]-ethyl}-cyclohexyl)-acetamide]: 4.02 nM and 2.09 nM.
With `COc1ccc(C(=O)N[C@H]2CC[C@H](CCN3CCC(c4noc5cc(F)ccc45)CC3)CC2)cc1` [Example 8, N-trans-(4-{2-[4-(6-Fluoro-benzo[d]isoxazol-3-yl)-piperidin-1-yl]-ethyl}-cyclohexyl)-4-methoxy-benzamide], the results for the Ki in test [1] and in test [2] were 4.53 nM and 3.65 nM, respectively.
Turning to `CC(C)(C)Oc1ccc(C(=O)N[C@H]2CC[C@H](CCN3CCC(c4noc5cc(F)ccc45)CC3)CC2)cc1` [Example 9, 4-tert-Butoxy-N-trans (4-{2-[4-(6-fluoro-benzo[d]isoxazol-3-yl)-piperidin-1-yl]-ethyl}-cyclohexyl)-benzamide], the inhibitory constant (Ki) turned out to be 3.42 nM in test [1] and 1.72 nM in test [2].
Consider `O=C(N[C@H]1CC[C@H](CCN2CCC(c3noc4cc(F)ccc34)CC2)CC1)c1ccnc(N2CCOCC2)c1` [Example 12, N-trans (4-{2-[4-(6-Fluoro-benzo[d]isoxazol-3-yl)-piperidin-1-yl]-ethyl}-cyclohexyl)-2-morpholin-4-yl-isonicotinamide], for which the Ki in test [2] came to 2.46 nM.
The same measure, in the same setting: with `O=C(N[C@H]1CC[C@H](CCN2CCC(c3noc4ccc(F)cc34)CC2)CC1)c1ccc2c(c1)OCO2` [Example 30, Benzo[1,3]dioxole-5-carboxylic acid trans (4-{2-[4-(5-fluoro-benzo[d]isoxazol-3-yl)-piperidin-1-yl]-ethyl}-cyclohexyl)-amide] the figure was 11.2 nM; with `O=C(CC1CCCCO1)N[C@H]1CC[C@H](CCN2CCC(c3noc4cc(Cl)ccc34)CC2)CC1` (stereo partly drawn) [Example 34, N-trans (4-{2-[4-(6-Chloro-benzo[d]isoxazol-3-yl)-piperidin-1-yl]-ethyl}-cyclohexyl)-2-(tetrahydro-pyran-2-yl)-acetamide], 5.83 nM.
Still for that read-out and setting: the result for `O=C(C[C@@H]1CCCCO1)N[C@H]1CC[C@H](CCN2CCC(c3noc4cc(Cl)ccc34)CC2)CC1` [Example 34A, N-trans (4-{2-[4-(6-Chloro-benzo[d]isoxazol-3-yl)-piperidin-1-yl]-ethyl}-cyclohexyl)-2-(R)-tetrahydro-pyran-2-yl-acetamide] reads 13.7 nM; that for `O=C(C[C@H]1CCCCO1)N[C@H]1CC[C@H](CCN2CCC(c3noc4cc(Cl)ccc34)CC2)CC1` [Example 34B, N-trans (4-{2-[4-(6-Chloro-benzo[d]isoxazol-3-yl)-piperidin-1-yl]-ethyl}-cyclohexyl)-2-(S)-tetrahydro-pyran-2-yl-acetamide], 15.3 nM.
